IC50, Activity and inhibition data for four compounds are collected here from ChEMBL document CHEMBL1833798, “Coprismycins A and B, neuroprotective phenylpyridines from the dung beetle-associated bacterium, Streptomyces sp” (Bioorg Med Chem Lett, 2011).

One data set deals with A549. In words: Cytotoxicity against human A549 cells assessed as inhibition of cell proliferation. It counts as ADME, cell-based.
Data set [1] has as its system SH-SY5Y. Nature of the data set: Cytotoxicity against human SH-SY5Y cells assessed as cell viability at 1 to 5 uM after 24 hrs. The class given is cell-based.
Another data set has as its system HCT-116. Nature of the data set: Cytotoxicity against human HCT116 cells assessed as inhibition of cell proliferation. The class given is ADME, cell-based.
Another data set has as its system MCF7. In words: Cytotoxicity against human MCF7 cells assessed as inhibition of cell proliferation. The class given is ADME, cell-based.
The next data set concerns AGS. Nature of the data set: Cytotoxicity against human AGS cells assessed as inhibition of cell proliferation. The class given is ADME, cell-based.
A further data set concerns HepG2. In words: Cytotoxicity against human HepG2 cells assessed as inhibition of cell proliferation. The class given is ADME, cell-based.
Data set [2] relates to SH-SY5Y. In words: Neuroprotective activity against MPP-induced neurotoxicity in human SH-SY5Y cells assessed as increase in cell viability at 5 uM pretreated for 2 hrs before MPP challenge measured after 48 hrs relative to control. It counts as functional.
Data set [3] has as its system SH-SY5Y. Nature of the data set: Neuroprotective activity against MPP-induced neurotoxicity in human SH-SY5Y cells assessed as increase in cell viability pretreated for 2 hrs before MPP challenge measured after 48 hrs. It counts as functional, cell-based.
The next data set is described as follows: in vitro. As to conditions: human, HCT116 cells; call rule not given here.
The subject of data set [4] is SH-SY5Y. In words: Neuroprotective activity against MPP-induced neurotoxicity in human SH-SY5Y cells assessed as increase in cell viability at 2.5 uM pretreated for 2 hrs before MPP challenge measured after 48 hrs relative to control. The class given is functional.
Data set [5] relates to SH-SY5Y. In words: Cytotoxicity against human SH-SY5Y cells assessed as cell viability at 5 uM after 48 hrs. It counts as cell-based.
Data set [6] relates to SH-SY5Y. In words: Neuroprotective activity against MPP-induced neurotoxicity in human SH-SY5Y cells assessed as decrease in cell viability at 5 uM pretreated for 2 hrs before MPP challenge measured after 48 hrs relative to control. The class given is functional.

Description for in vitro: Cytotoxicity against human HCT116 cells assessed as inhibition of cell proliferation at 50 uM

In the case of `COc1cc(-c2ccccn2)nc2cnsc12`, the IC50 result in the data set with A549, with HCT-116, in the data set with MCF7, in the data set on AGS and with HepG2 was “Not Active” throughout. Besides, the Activity entry in the data set with SH-SY5Y [1] is “Non-toxic”; in the data set with SH-SY5Y [2], 80%; with SH-SY5Y [3] it was “Dose-dependent effect”.

The inhibition is how much of the control response was suppressed. High values mean strong suppression, low ones little suppression. As for `COc1cc(-c2ccccn2)nc(C#N)c1SC`, the IC50 entry with A549, in the data set on HCT-116, in the data set with MCF7, with AGS and with HepG2 was “Not Active” throughout. Besides, the Activity result is “Non-toxic” with SH-SY5Y [1], 83.3% with SH-SY5Y [2] and “Dose-dependent effect” in the data set on SH-SY5Y [3]. The compound also came in with an inhibition at 50 µM in “in vitro” of 7.37%.

Take `COc1cc(-c2ccccc2)nc(/C=N/O)c1SC` [COPRISMYCIN A]: the IC50 result in the data set on A549, in the data set on HCT-116, in the data set with MCF7, in the data set with AGS and in the data set on HepG2 was “Not Active” each time. The Activity result is “Non-toxic” in the data set on SH-SY5Y [1], 80.3% in the data set on SH-SY5Y [2] and “Dose-dependent effect” with SH-SY5Y [3].

For `COc1cc(-c2ccccc2)nc(/C=N\O)c1SC` [COPRISMYCIN B], the IC50 entry in the data set with A549, in the data set on HCT-116, in the data set with MCF7, in the data set with AGS and in the data set on HepG2 was “Not Active” throughout. Also, the Activity is 88.4% with SH-SY5Y [4]; “Non-toxic” in the data set on SH-SY5Y [1]; “Toxic” in the data set on SH-SY5Y [5]; 69.8% in the data set on SH-SY5Y [6]; “Dose-dependent effect” in the data set with SH-SY5Y [3].
